From US20210170043A1, “DC-SIGN ANTIBODY CONJUGATES COMPRISING STING AGONISTS” (NOVARTIS AG, priority 2018, published 2021)
Each block holds one molecule with its values, some of them ahead of it.

Columns and labels:
human STING wild type = molecular target: T1, human STING wild type (Homo sapiens, UniProt Q86WV6, H232R); assay: hSTING wt assay (5xISRE-mIFNb-GL4 luciferase reporter in transfected HEK-293T cells); assay type: cell-based; settings: read after 9-14 hours, normalized to 2'3'-cGAMP at 50 uM
T1 construct: expressed in transfected cells; host or cells: HEK-293T
Experimental: Cells were incubated overnight and treated with compounds. After 9-14 hours, plates were read by adding BrightGlo reagent (Promega) and reading on an Envision plate reader. The fold change over background was calculated and normalized to the fold-change induced by 2′3′-cGAMP at 50 uM. Plates were run in triplicate.

THP1-Dual cells = assay: THP1-Dual assay (Lucia reporter); assay type: cell-based; settings: Homo sapiens, 384 well, 16-24 hours, normalized to 2'3'-cGAMP at 50 uM
Experimental: THP1-Dual cells were purchased from Invivogen. THP1-Dual cells were plated in 384 well plates in 20 uL of tissue culture media and incubated overnight. Compounds were added the next day and incubated 16-24 hours. Lucia reporter signal was read out by adding Quantiluc reagent (Invivogen) followed by reading on an Envision plate reader. The fold change over background was calculated and normalized to the fold-change induced by 2′3′-cGAMP at 50 uM. Plates were run in triplicate.

[1] = system: transgenic mice expressing human DC-SIGN gene (Tg+); assay: Plasma cytokine and chemokine levels in human DC-SIGN transgenic mice; assay type: in vivo, mouse; settings: 100 μg free compound i.v., 6 hours post dose, vs untreated and 10 μg
Experimental: Blood was collected at 6 hours post dose to analyze plasma cytokine and chemokine levels and spleens were analyzed at 24 hours post dose to look at dendritic cell activation.
(§1) Mice were bled 6 hours after dosing to collect plasma for analysis of circulating cytokine levels.
Plasma was collected at indicated timepoints and analyzed with a Mouse IP-10 Platinum ELISA kit (eBioscience Affymetrix). Plasma was diluted 1:100 and the protocol was followed according to the manufacturer's recommendations. Data was collected using an Enspire spectro-photometer using […] as the primary wavelength.
Plasma was collected at indicated timepoints and analyzed with a Mouse IFN-beta ELISA kit (R&D Systems) according to the manufacturer's recommendations. Data was collected using an Enspire spectro-photometer using […] as the primary wavelength.
Plasma was collected at indicated timepoints and analyzed with a mouse Proinflammatory Panel 1 (mouse) Kit V-PLEX™ 10 plex from MesoScale Discovery. 25 μL of plasma per sample was used and protocol was followed according to the manufacturer's recommendations. Data were collected and analyzed using a Sector Imager 6000.
Human DC-SIGN transgenic mice (Tg+) (Schaefer et al., J. Immunol. (2008) 180 (10) 6836-6845) were bred to Signr1 deficient mice (−/− or KO) (Orr et al., Glycobiology (2013) 23(3): 363-380). Human DC-SIGN expression was checked using PCR to genotype the mice. Human DC-SIGN Tg+ Signr1−/− mice or human DC-SIGN Tg− Signr1−/− mice were tested with compounds as indicated in the above examples.

[2] = system: transgenic mice expressing human DC-SIGN gene (Tg+); assay: Plasma cytokine production in transgenic mice expressing human DC-SIGN (ELISA / MesoScaleDiscovery); assay type: in vivo, mouse
Experimental: FIGS. 5A-5E show exemplary data on DC-SIGN immunoconjugates inducing cytokine production in Tg+ mice. […] Plasma levels were analyzed by ELISA (IP-10 and IFNβ) or MesoScaleDiscovery Multiplex analysis (all other analytes). **** denotes p value of <0.0001 using an ANOVA with Tukey's test compared to Tg-2B2 hlgG1 DAPA C1 group.
as §1

THP1-Dual/STING-KO cells = assay: THP1-Dual/STING-KO assay; assay type: cell-based; settings: Homo sapiens, pooled STING-KO clones
Experimental: The fold change over background was calculated and normalized to the fold-change induced by 2′3′-cGAMP at 50 uM. Plates were run in triplicate.

T1 sequence (Q86WV6 whole entry H232R): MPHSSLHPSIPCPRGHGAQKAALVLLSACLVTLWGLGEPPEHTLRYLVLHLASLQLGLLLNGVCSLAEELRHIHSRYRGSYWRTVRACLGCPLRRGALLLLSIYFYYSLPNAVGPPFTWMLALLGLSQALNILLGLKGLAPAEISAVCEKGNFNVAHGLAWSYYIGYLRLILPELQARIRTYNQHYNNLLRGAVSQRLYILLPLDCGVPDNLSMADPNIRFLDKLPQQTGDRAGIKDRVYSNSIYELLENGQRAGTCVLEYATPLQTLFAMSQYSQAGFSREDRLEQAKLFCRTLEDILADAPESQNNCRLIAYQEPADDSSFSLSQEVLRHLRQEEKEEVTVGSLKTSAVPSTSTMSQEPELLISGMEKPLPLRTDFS

EC50 (human STING wild type): > 25000 nM
Compound: NCCCNc1ncnc2c1ncn2[C@@H]1O[C@@H]2CO[P@@](=O)(S)O[C@H]3[C@@H](F)[C@H](n4cnc5c(N)ncnc54)O[C@@H]3CO[P@@](=O)(S)O[C@H]2[C@H]1F

Compound: CCCCCCCCCCO[C@@H]1[C@@H]2O[P@](=O)(S)OC[C@H]3O[C@@H](n4cnc5c(N)ncnc54)[C@H](O[P@](=O)(S)OC[C@H]2O[C@H]1n1cnc2c(N)ncnc21)[C@@H]3O
EC50 (THP1-Dual cells): > 25000 nM

EC50 (human STING wild type): 294 nM
EC50 (THP1-Dual/STING-KO cells): > 50000 nM
Compound: Nc1ncnc2c1ncn2C1OC2COP(=O)(S)OC3C(COP(=O)(S)OC2C1F)OC(n1cnc2c(N)ncnc21)C3F (stereo not drawn) [Compound T1-1, di-2′-F—RR-CDA]
plasma IL-12p70 [1]: increased
plasma IP-10 [1]: increased
plasma TNFα [1]: increased
circulating plasma IL-12p70 [2]: increased
circulating plasma IP-10 [2]: increased
circulating plasma TNFα [2]: increased
EC50 (THP1-Dual cells): 462 nM

Compound: Nc1ncnc2c1ncn2[C@@H]1O[C@@H]2CO[P@@](=O)(S)O[C@@H]3[C@H](O)[C@@H](CO[P@@](=O)(S)O[C@H]2[C@H]1F)O[C@H]3n1cnc2c(N)ncnc21 [Compound T1-2]
EC50 (THP1-Dual cells): 1990 nM
